The values that follow are results of earlier work, collected in patent US20150231092A1, “NOVEL EFFERVESCENT SACHET FORMULATIONS OF DAPOXETINE AND A PDE5 INHIBITOR” (Sanovell IIac Sanayi Ve Ticaret Anonim Sirketi, priority 2012, published 2015).

For data set [1] the following is noted: following oral administration.
For data set [2] the following is noted: following oral administration. This is another data set of the same source.

For `CN(C)[C@@H](CCOc1cccc2ccccc12)c1ccccc1` [dapoxetine], in data set [1], the “binding to plasma proteins” value is reported as “almost completely binding to plasma proteins”.
In the case of `CN1CC(=O)N2[C@H](c3ccc4c(c3)OCO4)c3[nH]c4ccccc4c3C[C@@H]2C1=O` [tadalafil, (6R-trans)-6-(1,3-benzodioxol-5-yl)-2,3,6,7,12,12a-hexahydro-2-methyl-pyrazino[1′,2′:1,6]pyrido[3,4-b]indole-1,4-dione], the solubility in water entry is listed as “poorly soluble in water”. Also, in data set [2], the onset of action was 15 min and the “onset of action takes (second sentence; apparently action time)” value is “up to 36 hours”.
